pIC50: −log10 of the molar value. The source made the active and inactive calls. No cut-off for these calls is given here.
Key:
[1] = biological target: NACHT, LRR and PYD domains-containing protein 3 (Mus musculus) (UniProt Q8R4B8); assay: (§1) Inhibition of NLRP3 inflammasome activation in LPS-stimulated mouse J774A.1 cells assessed as inhibition of cell pyrolysis at 20 uM incubated for 1 hr followed by ATP addition and measured after 30 mins by Hoechst 33342/propidium iodide staining based high content screening method relative to control; settings: J774.A1, time 1.5 hrs
[2] = test system: L02; assay: Cytotoxicity against human L-02 cells incubated for 24 hrs by MTT assay; assay type: cell-based; settings: L02, 24 h
[3] = biological target: NACHT, LRR and PYD domains-containing protein 3 (Mus musculus, UniProt Q8R4B8); assay: Inhibition of NLRP3 inflammasome activation in LPS-stimulated mouse bone marrow-derived macrophages assessed as reduction in IL-1beta secretion preincubated for 30 mins followed by nigericin addition and measured after 30 mins by ELISA; assay type: tissue-based, Macrophage
[4] = test system: Macrophage; assay: Inhibition of NFkappaB activation in LPS-stimulated mouse bone marrow-derived macrophages assessed as reduction in TNFalpha secretion preincubated for 30 mins followed by nigericin addition and measured after 30 mins by ELISA; assay type: tissue-based; settings: time 60.0 min
[5] = biological target: NACHT, LRR and PYD domains-containing protein 3 (Mus musculus) (UniProt Q8R4B8); assay: as §1, with “10” for “20”; settings: J774.A1, time 1.5 hrs
[6] = Half life in human liver microsomes preincubated for 5 mins followed by NADPH addition and measured after 5 to 60 mins by LC-MS/MS analysis; assay type: ADME, Microsome
[7] = Intrinsic clearance in human liver microsomes preincubated for 5 mins followed by NADPH addition and measured after 5 to 60 mins by LC-MS/MS analysis; assay type: ADME, Microsome; settings: time 5-60 min, read-out: CLH
[8] = Hepatic clearance in human liver microsomes preincubated for 5 mins followed by NADPH addition and measured after 5 to 60 mins by LC-MS/MS analysis; assay type: ADME, Microsome; settings: time 5-60 min
[9] = Half life in mouse liver microsomes preincubated for 5 mins followed by NADPH addition and measured after 5 to 60 mins by LC-MS/MS analysis; assay type: ADME, Microsome; settings: time 5-60 min
[10] = Intrinsic clearance in mouse liver microsomes preincubated for 5 mins followed by NADPH addition and measured after 5 to 60 mins by LC-MS/MS analysis; assay type: ADME, Microsome; settings: time 5-60 min, read-out: CLH
[11] = Hepatic clearance in mouse liver microsomes preincubated for 5 mins followed by NADPH addition and measured after 5 to 60 mins by LC-MS/MS analysis; assay type: ADME, Microsome; settings: time 5-60 min

Sequence of NACHT, LRR and PYD domains-containing protein 3 (Mus musculus) (Q8R4B8 whole entry, the tested form may be a part): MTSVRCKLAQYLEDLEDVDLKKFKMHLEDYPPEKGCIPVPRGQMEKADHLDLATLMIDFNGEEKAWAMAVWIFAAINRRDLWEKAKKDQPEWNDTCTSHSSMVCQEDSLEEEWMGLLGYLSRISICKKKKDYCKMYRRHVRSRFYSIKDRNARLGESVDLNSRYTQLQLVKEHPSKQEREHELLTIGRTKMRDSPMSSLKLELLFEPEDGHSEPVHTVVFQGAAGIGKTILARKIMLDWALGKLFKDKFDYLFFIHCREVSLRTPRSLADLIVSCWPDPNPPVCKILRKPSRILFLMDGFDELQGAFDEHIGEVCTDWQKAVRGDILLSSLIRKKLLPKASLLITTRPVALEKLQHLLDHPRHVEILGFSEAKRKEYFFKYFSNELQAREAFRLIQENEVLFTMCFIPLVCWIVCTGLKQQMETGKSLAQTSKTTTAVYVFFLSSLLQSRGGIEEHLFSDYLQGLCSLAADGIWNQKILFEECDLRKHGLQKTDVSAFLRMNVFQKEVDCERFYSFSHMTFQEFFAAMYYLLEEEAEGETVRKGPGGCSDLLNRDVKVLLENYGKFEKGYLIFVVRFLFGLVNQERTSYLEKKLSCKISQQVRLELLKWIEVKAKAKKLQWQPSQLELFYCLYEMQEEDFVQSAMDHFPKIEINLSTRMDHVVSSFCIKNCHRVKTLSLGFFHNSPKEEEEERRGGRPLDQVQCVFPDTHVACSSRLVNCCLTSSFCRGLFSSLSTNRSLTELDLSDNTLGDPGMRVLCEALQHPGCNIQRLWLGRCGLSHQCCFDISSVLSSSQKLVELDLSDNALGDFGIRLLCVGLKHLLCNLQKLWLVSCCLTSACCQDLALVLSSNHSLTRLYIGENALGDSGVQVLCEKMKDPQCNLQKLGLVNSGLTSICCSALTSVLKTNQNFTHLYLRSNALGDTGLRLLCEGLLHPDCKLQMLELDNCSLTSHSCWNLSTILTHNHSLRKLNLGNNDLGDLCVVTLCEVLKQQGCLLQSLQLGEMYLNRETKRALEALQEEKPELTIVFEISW
Sequence of NACHT, LRR and PYD domains-containing protein 3 (Q8R4B8 whole entry, the tested form may be a part): as above

Compound | inhibition [1] [%] | pIC50 [2] | inhibition [5] [%] | also measured
COc1cc(/C=C/c2ccc(O)cc2)cc(OC)c1 [PTEROSTILBENE] | 21.2 | < 4.00 | – | pIC50 [3]: < 5.00; inhibition [4]: Active
COc1cc(/C=C/c2ccc(OCC(=O)NCc3ccc(Cl)cc3)cc2)c(/C=C/[N+](=O)[O-])c(OC)c1 | 49.6 | < 4.00 | 30.7 | –
O=[N+]([O-])/C=C/c1ccc2c(c1)OCO2 | 89.2 | 4.39 | 70.6 | pIC50 [3]: 5.64
C=CCCCOc1ccc(/C=C/c2cc(OC)cc(OC)c2-c2cnn[nH]2)cc1 | – | < 4.00 | – | –
COc1cc(/C=C/c2ccc(OCC(=O)NCc3ccc(C#N)cc3)cc2)c(/C=C/[N+](=O)[O-])c(OC)c1 | 59.9 | < 4.00 | 34.4 | –
COc1cc(/C=C/c2ccc(NC(C)=O)cc2)c(/C=C/[N+](=O)[O-])c(OC)c1 | – | < 4.00 | 56.2 | –
COc1cc(/C=C/c2ccc(OCC(=O)NCc3ccc(C)cc3)cc2)c(/C=C/[N+](=O)[O-])c(OC)c1 | 31.9 | < 4.00 | 24.1 | –
COCC(=O)Nc1ccc(/C=C/c2cc(OC)cc(OC)c2/C=C/[N+](=O)[O-])cc1 | – | < 4.00 | 60 | –
COCCCOc1ccc(/C=C/c2cc(OC)cc(OC)c2/C=C/[N+](=O)[O-])cc1 | 53.7 | < 4.00 | 43.2 | –
COc1cc(/C=C/c2ccc(NC(=O)C3CCCCC3)cc2)c(/C=C/[N+](=O)[O-])c(OC)c1 | – | < 4.00 | 28.7 | pIC50 [3]: < 5.00
COc1cc(/C=C/c2ccc(OCc3ccc(C(F)(F)F)cc3)cc2)c(-c2cnn[nH]2)c(OC)c1 | 3.25 | < 4.00 | – | –
COc1cc(/C=C/c2ccc(NC(=O)C3CCC3)cc2)c(/C=C/[N+](=O)[O-])c(OC)c1 | – | < 4.00 | 55.6 | pIC50 [3]: 5.85
COCCOc1ccc(/C=C/c2cc(OC)cc(OC)c2/C=C/[N+](=O)[O-])cc1 | 40.2 | < 4.00 | 34.6 | –
COCCOc1ccc(/C=C/c2cc(OC)cc(OC)c2-c2cnn[nH]2)cc1 | 26.9 | 4.02 | 11.3 | –
COc1ccc2c(c1)[C@]13CCCC[C@@H]1[C@H](C2)N(C)CC3 [DEXTROMETHORPHAN] | – | – | – | half-life [6]: 31.2 min; microsomal CLint [7]: 44.5 µL/min/mg; CLhep predicted [8]: 0.888 L/h/kg; half-life [9]: 16.6 min; microsomal CLint [10]: 83.3 µL/min/mg; CLhep predicted [11]: 4.24 L/h/kg
COc1cc(/C=C/c2ccc(OCC(=O)NCc3ccccc3)cc2)c(-c2cnn[nH]2)c(OC)c1 | 31.6 | < 4.00 | 19.4 | pIC50 [3]: < 5.00
COc1cc(/C=C/c2ccc(OCC(=O)Nc3ccc(Cl)cc3)cc2)c(/C=C/[N+](=O)[O-])c(OC)c1 | 40.1 | < 4.00 | 22.1 | –
COc1ccc(NC(=O)COc2ccc(/C=C/c3cc(OC)cc(OC)c3/C=C/[N+](=O)[O-])cc2)cc1 | 15.1 | < 4.00 | 12.9 | –
COc1cc(/C=C/c2ccc(OCC(=O)Nc3ccc(Br)cc3)cc2)c(/C=C/[N+](=O)[O-])c(OC)c1 | 26.2 | < 4.00 | 9.56 | –
COc1cc(/C=C/c2ccc(NC(=O)C3CCCC3)cc2)c(/C=C/[N+](=O)[O-])c(OC)c1 | – | < 4.00 | 45.7 | –
COc1cc(/C=C/c2ccc(NC(=O)OC(C)(C)C)cc2)c(/C=C/[N+](=O)[O-])c(OC)c1 | – | < 4.00 | 24 | –
COc1cc(/C=C/c2ccc(OCC(=O)NCc3ccncc3)cc2)c(/C=C/[N+](=O)[O-])c(OC)c1 | 65.4 | 4.20 | 45.3 | pIC50 [3]: 5.11
CCCCC(=O)Nc1ccc(/C=C/c2cc(OC)cc(OC)c2/C=C/[N+](=O)[O-])cc1 | – | < 4.00 | 36 | –
COc1cc(/C=C/c2ccc(O)cc2)c(/C=C/[N+](=O)[O-])c(OC)c1 | 31.5 | < 4.00 | 13.3 | pIC50 [3]: < 5.00
CCCC(=O)Nc1ccc(/C=C/c2cc(OC)cc(OC)c2/C=C/[N+](=O)[O-])cc1 | – | < 4.00 | 48.9 | –
COc1cc(/C=C/c2ccc(OCC(=O)NCc3ccccc3)cc2)cc(OC)c1 | 15.4 | < 4.00 | 9.65 | –

Compound | inhibition [1] [%] | pIC50 [2] | inhibition [5] [%] | also measured
COc1cc(/C=C/c2ccc(OCC(=O)NCc3ccccc3)cc2)c(/C=C/[N+](=O)[O-])c(OC)c1 | 57.9 | < 4.00 | 27.9 | –
COc1cc(/C=C/c2ccc(OCC(=O)NC3CCCCC3)cc2)c(/C=C/[N+](=O)[O-])c(OC)c1 | 41.8 | < 4.00 | 25.6 | –
COc1cc(NC(=O)COc2ccc(/C=C/c3cc(OC)cc(OC)c3/C=C/[N+](=O)[O-])cc2)cc(OC)c1 | 39.8 | < 4.00 | 20.1 | –
COc1cc(/C=C/c2ccc(NC(=O)CC(C)(C)C)cc2)c(/C=C/[N+](=O)[O-])c(OC)c1 | – | < 4.00 | 9.89 | –
COc1ccc(CNC(=O)COc2ccc(/C=C/c3cc(OC)cc(OC)c3/C=C/[N+](=O)[O-])cc2)cc1 | 23.1 | < 4.00 | 11.8 | –
C/C=C/C(=O)Nc1ccc(/C=C/c2cc(OC)cc(OC)c2/C=C/[N+](=O)[O-])cc1 | – | < 4.00 | 60.7 | –
C=C1C(=O)[C@]23[C@H](O)[C@H]1CC[C@H]2[C@@]12CO[C@]3(O)[C@@H](O)[C@@H]1C(C)(C)CC[C@@H]2O [ORIDONIN] | 83.3 | 4.42 | 69.5 | pIC50 [3]: 6.09
COc1cc(/C=C/c2ccc(OCC(=O)NCc3ccc(Br)cc3)cc2)c(/C=C/[N+](=O)[O-])c(OC)c1 | 34.9 | < 4.00 | 24 | pIC50 [3]: 5.01
COc1cc(/C=C/c2ccc(OCC(=O)Nc3ccc(F)cc3)cc2)c(/C=C/[N+](=O)[O-])c(OC)c1 | 49.6 | < 4.00 | 40.7 | –
C=CCCCOc1ccc(/C=C/c2cc(OC)cc(OC)c2)cc1 | 12.1 | < 4.00 | 11.1 | –
COCCOc1ccc(/C=C/c2cc(OC)cc(OC)c2)cc1 | 32.3 | < 4.00 | 25.7 | –
COCCCOc1ccc(/C=C/c2cc(OC)cc(OC)c2)cc1 | 20.2 | < 4.00 | 17.1 | –
COc1cc(/C=C/c2ccc(OCC(=O)NCCc3ccccc3)cc2)c(/C=C/[N+](=O)[O-])c(OC)c1 | 46.2 | < 4.00 | 26.2 | –
COc1cc(/C=C/c2ccc(NC(=O)CCl)cc2)c(/C=C/[N+](=O)[O-])c(OC)c1 | – | 4.37 | 90 | –
COc1cc(/C=C/c2ccc(OCc3ccc(C(F)(F)F)cc3)cc2)c(/C=C/[N+](=O)[O-])c(OC)c1 | 23.7 | < 4.00 | 17.9 | –
COc1cc(/C=C/c2ccc(OCc3ccc(C(F)(F)F)cc3)cc2)cc(OC)c1 | 8.51 | < 4.00 | 6.32 | pIC50 [3]: < 5.00
COc1cc(/C=C/c2ccc(OCC(=O)NCC3CCOCC3)cc2)c(/C=C/[N+](=O)[O-])c(OC)c1 | 25.3 | < 4.00 | 15.3 | –
C=CC(=O)Nc1ccc(/C=C/c2cc(OC)cc(OC)c2/C=C/[N+](=O)[O-])cc1 | – | < 4.00 | 71.2 | –
COc1cc(/C=C/c2ccc(OCC(=O)NC3CCN(C(=O)OC(C)(C)C)CC3)cc2)c(/C=C/[N+](=O)[O-])c(OC)c1 | 42.3 | < 4.00 | 33 | –
COc1cc(/C=C/c2ccc(NC(=O)CCCl)cc2)c(/C=C/[N+](=O)[O-])c(OC)c1 | – | < 4.00 | 70.5 | pIC50 [3]: 6.12
C=CCCCOc1ccc(/C=C/c2cc(OC)cc(OC)c2/C=C/[N+](=O)[O-])cc1 | 33.5 | < 4.00 | 26.8 | –
COc1cc(/C=C/c2ccc(NC(=O)C(C)C)cc2)c(/C=C/[N+](=O)[O-])c(OC)c1 | – | < 4.00 | 69 | –
COc1cc(/C=C/c2ccc(NC(=O)COC(C)=O)cc2)c(/C=C/[N+](=O)[O-])c(OC)c1 | – | 4.23 | 61 | –
CCC(=O)Nc1ccc(/C=C/c2cc(OC)cc(OC)c2/C=C/[N+](=O)[O-])cc1 | – | < 4.00 | 50.7 | –
CCCC(C)C(=O)Nc1ccc(/C=C/c2cc(OC)cc(OC)c2/C=C/[N+](=O)[O-])cc1 (stereo unspecified) | – | < 4.00 | 41 | –
CCCCNC(=O)COc1ccc(/C=C/c2cc(OC)cc(OC)c2/C=C/[N+](=O)[O-])cc1 | 70.1 | < 4.00 | 40.9 | pIC50 [3]: 5.14

Reference: ChEMBL document CHEMBL4831528, “Discovery of Novel Pterostilbene-Based Derivatives as Potent and Orally Active NLRP3 Inflammasome Inhibitors with Inflammatory Activity for Colitis” (J Med Chem, 2021)
